This is an account of results in patent US11549123B2, “Plant EPSP synthases and methods of use” (PIONEER HI-BRED INTERNATIONAL, INC., priority 2015, dated 2023).

By Km is commonly meant the concentration of substrate that gives half-maximal velocity. In general, Ki refers to the equilibrium dissociation constant of an inhibitor or competing ligand from its target.

Experiment [1] relates to Type II EPSPS from Agrobacterium sp. strain CP4. Conditions: read-out: KM for PEP; U.S. Pat. No. 5,633,435; cited from earlier work.
For experiment [2], the target named is T1, Zea mays EPSPS variant Zm-T103I (Zea mays, UniProt O24566, T102I).
T1 construct: native maize plus T103I; E. coli BL21(DE3), Ni-NTA purified
T1 sequence (O24566 with tags, fused parts or gaps T102I): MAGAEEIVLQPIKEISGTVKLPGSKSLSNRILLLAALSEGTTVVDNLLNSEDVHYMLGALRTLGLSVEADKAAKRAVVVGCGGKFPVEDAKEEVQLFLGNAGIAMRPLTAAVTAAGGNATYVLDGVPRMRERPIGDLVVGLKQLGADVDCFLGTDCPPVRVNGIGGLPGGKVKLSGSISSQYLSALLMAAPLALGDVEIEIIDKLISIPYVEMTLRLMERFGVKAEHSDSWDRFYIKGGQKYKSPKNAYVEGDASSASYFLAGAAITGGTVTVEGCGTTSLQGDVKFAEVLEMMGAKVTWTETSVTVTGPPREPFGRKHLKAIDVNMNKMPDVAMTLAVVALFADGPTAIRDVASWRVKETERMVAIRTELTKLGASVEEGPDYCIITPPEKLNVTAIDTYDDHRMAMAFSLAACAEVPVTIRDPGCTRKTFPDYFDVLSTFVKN
In words: Substrate saturation kinetic analysis with glyphosate, Zm-T103I. The format is biochemical.

The target in experiment [3] is Sorghum halepense EPSPS with 868-H6 mutations, SEQ ID NO:12 (Sorghum halepense, UniProt H6T5X2, A1R/A3W/A415G/D401G/E301S/E390G/G101A/I207L/K83R/L97C/T278A/T360S/T440Q/V437R/V71Q). In words: EPSPS substrate saturation kinetics, sorghum H6. The format is biochemical. How it is done:
EPSPS activity was determined by quantifying the phosphate generated from the EPSPS reaction. Release of inorganic phosphate was coupled to reaction with 2-amino-6-mercapto-7-methylpurine ribonucleoside, catalyzed by purine-nucleoside phosphorylase (M R Webb, Proc. Natl. Acad. Sci. 89:4884-4887, 1992). The absorbance change that occurs was monitored at 360 nm, where the extinction is 11,200 M^−1 cm^−1, with a Spectramax plate reader (Molecular Devices). To determine kinetic parameters, the varied substrate was present at seven concentrations (the eighth being the blank, containing no substrate) ranging from 4 to 400 uM and the unvaried substrate present at saturation. […] Reactions were monitored with a Spectramax plate reader. […] KI was then calculated from the following form of the Michaelis-Menten equation for competitive inhibition: KI=KM[I]/(KM app−KM) KM approximates the dissociation constant of the enzyme-substrate complex while kcat is the rate of conversion of substrate to product when the substrate concentration is saturating. kcat/KM is a widely accepted parameter for catalytic efficiency when substrate concentration is low (˜KM). […] The parameter kcat/KM×KI is used to quantify both catalytic efficiency and insensitivity and thus the overall fitness of the enzyme. […]

Experiment [4] addresses T2, Zea mays EPSPS variant Zm-H6 (868-H6) with A76V (H6-A76V) (Zea mays, UniProt O24566, A1R/A3W/A415G/A71Q/A75V/D401G/E301S/E390G/G101A/I207L/K83R/L97C/T278A/T360S/T440Q/V437R).
T2 sequence (O24566 with tags, fused parts or gaps A1R/A3W/A71Q/A75V/K83R/L97C/G101A/I207L/T278A/E301S/T360S/E390G/D401G/A415G/V437R/T440Q): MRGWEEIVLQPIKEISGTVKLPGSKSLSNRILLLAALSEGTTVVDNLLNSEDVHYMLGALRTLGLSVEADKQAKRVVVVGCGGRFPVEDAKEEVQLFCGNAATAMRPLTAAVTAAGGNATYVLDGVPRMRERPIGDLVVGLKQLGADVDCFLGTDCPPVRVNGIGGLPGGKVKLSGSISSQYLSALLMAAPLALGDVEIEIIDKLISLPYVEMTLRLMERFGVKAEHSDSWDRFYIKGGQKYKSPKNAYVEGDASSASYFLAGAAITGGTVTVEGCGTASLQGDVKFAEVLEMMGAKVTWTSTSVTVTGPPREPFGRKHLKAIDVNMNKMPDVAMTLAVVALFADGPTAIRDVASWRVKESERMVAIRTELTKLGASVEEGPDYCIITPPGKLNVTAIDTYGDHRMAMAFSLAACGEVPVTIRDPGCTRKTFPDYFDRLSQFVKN
In words: Rapid two-rate method for (kcat/KM)*KI, H6-A76V. Type of experiment: biochemical. The following applies: [E] 0.07 uM, [Gly] 1000 uM. The source says:
There are several practical considerations for accurately estimating (kcat/KM)*KI with the rapid method. […] 2) The inhibitor concentration must be adjusted so as to obtain a degree of inhibition that minimally amplifies the error in the term v0-vi in Equation 3. If inhibition is too little, v0-vi will be small, and the error in the multiplier vi×v0/(v0-vi) will be large. […] 3) Substrate concentration should be set at the approximate KM of the parental variant(s), subject to the sensitivity of the assay. High substrate concentration obscures sensitivity to the inhibitor and reduces stringency for capturing improvements in KM. Depending on the necessity for speed, there exists opportunity for customizing enzyme and inhibitor concentrations. […] The rapid method was repeated for those and obtained data that correlated better with data obtained by substrate saturation analysis. For screening purposes however, that correlation step is not necessary. Conditions can be set so that variants with a pre-determined minimal fitness level are accurately quantified.
In Table 15, parameters above the heavy line for the rapid method were obtained under standard conditions. For variants shown below the heavy line, the rapid analysis was repeated with enzyme or glyphosate concentrations adjusted as needed to generate sufficient signal within the limits for linear initial rates.

Sequence of Sorghum halepense EPSPS with 868-H6 mutations, SEQ ID NO:12 (H6T5X2 entry or part of it with the stated changes): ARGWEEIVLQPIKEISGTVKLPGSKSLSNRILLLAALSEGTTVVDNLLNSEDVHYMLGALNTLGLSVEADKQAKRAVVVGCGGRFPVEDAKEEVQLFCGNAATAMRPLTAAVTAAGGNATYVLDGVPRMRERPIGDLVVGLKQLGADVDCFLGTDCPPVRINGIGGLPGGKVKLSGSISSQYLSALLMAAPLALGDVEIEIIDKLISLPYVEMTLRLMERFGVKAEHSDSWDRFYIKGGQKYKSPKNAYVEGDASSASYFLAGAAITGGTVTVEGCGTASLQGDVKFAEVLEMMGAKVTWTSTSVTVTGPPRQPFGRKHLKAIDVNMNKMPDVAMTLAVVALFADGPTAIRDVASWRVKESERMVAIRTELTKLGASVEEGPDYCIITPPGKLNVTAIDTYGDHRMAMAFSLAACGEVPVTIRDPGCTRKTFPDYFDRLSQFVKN

As for `C=C(OP(=O)(O)O)C(=O)O` [PEP, phosphoenolpyruvate], the Km in experiment [1] was 12 µM.

In the case of `O=C(O)CNCP(=O)(O)O` [glyphosate, N-phosphonomethylglycine], the inhibitory constant (Ki) came to 53 µM in experiment [2] and 783 µM in experiment [3]. The “(kcat/KM)*KI” value in experiment [2] (substrate saturation, Zm-T103I) is on record as 99; in experiment [3] (PEP as substrate, glyphosate as inhibitor) it was 8080; in experiment [4] it was 2418.
